Reference: patent US8614327B2 (Vertex Pharmaceuticals Incorporated, priority 2004, dated 2013)

Biological target: T1, ΔF508-CFTR (Homo sapiens, UniProt P13569, DEL508-508)
T1 construct: expressed in transfected cells
Test: Membrane potential optical (FRET/VIPR) assay, identification of potentiator compounds
Format: cell-based
Details: Table 3, assay not given; for % Activity: relative efficacy
How it was run: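 NIH3T3 mouse fibroblasts stably expressing ΔF508-CFTR, temperature-corrected 24 h at 27° C., read on VIPR by FRET between CC2-DMPE and DiSBAC2(3). Potentiators identified in a double-addition format, first adding chloride-free (gluconate) medium with or without compound.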

T1 sequence (P13569 with tags, fused parts or gaps DEL508-508): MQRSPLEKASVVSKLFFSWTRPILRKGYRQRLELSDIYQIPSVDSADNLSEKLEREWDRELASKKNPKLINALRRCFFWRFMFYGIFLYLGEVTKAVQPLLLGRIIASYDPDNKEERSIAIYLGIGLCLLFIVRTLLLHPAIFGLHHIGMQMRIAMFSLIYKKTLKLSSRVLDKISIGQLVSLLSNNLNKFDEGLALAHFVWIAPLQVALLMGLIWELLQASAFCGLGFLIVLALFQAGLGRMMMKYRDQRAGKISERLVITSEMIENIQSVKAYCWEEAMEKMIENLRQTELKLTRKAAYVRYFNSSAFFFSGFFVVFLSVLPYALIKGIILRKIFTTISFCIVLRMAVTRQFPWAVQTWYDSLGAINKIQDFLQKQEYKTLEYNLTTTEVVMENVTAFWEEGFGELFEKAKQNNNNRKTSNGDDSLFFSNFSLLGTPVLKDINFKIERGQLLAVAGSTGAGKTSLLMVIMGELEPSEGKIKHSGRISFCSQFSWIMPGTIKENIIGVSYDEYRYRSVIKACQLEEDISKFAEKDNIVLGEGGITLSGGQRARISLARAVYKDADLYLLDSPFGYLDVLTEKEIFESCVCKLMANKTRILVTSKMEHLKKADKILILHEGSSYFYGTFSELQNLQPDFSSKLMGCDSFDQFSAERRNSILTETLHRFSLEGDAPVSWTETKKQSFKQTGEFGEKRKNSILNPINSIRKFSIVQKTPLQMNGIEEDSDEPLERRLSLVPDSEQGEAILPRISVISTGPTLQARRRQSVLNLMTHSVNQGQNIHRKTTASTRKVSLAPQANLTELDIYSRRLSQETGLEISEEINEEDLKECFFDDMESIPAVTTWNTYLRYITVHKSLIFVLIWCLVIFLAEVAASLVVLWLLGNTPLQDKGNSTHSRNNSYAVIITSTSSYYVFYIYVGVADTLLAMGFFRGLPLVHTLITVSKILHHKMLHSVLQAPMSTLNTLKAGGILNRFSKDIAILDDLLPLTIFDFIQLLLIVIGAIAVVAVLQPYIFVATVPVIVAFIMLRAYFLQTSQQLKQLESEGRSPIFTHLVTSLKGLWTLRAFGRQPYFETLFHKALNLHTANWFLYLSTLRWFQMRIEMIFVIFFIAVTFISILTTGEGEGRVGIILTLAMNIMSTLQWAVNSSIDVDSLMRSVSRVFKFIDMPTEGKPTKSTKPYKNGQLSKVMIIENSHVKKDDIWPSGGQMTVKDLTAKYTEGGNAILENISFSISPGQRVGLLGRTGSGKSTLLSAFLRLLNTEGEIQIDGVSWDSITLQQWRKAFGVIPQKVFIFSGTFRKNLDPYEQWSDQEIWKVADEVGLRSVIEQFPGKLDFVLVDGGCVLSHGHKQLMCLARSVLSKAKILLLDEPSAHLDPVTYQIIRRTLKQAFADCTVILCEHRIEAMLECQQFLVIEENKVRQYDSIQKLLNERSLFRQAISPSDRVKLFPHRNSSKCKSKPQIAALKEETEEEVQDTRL

SMILES	EC50	% Activity
COc1cc(NC(=O)c2c[nH]c3ccccc3c2=O)cc(C(F)(F)F)c1 [Compound 691, N-[3-methoxy-5-(trifluoromethyl)phenyl]-4-oxo-1H-quinoline-3-carboxamide]	< 10 µM	++ (between 25% to 100%)
O=C(Nc1ccccc1-c1ccccn1)c1c[nH]c2ccccc2c1=O [Compound 692, 4-oxo-N-[2-(2-pyridyl)phenyl]-1H-quinoline-3-carboxamide]	< 10 µM	++ (between 25% to 100%)
O=C(Nc1ccc2cc(C(F)(F)F)[nH]c2c1)c1c[nH]c2cccc(O)c2c1=O [Compound 693, 5-hydroxy-4-oxo-N-[2-(trifluoromethyl)-1H-indol-6-yl]-1H-quinoline-3-carboxamide]	< 10 µM	++ (between 25% to 100%)
CC(C)(C)c1cc(C(C)(C)C)c(NC(=O)c2c[nH]c3cc(OC(F)(F)F)ccc3c2=O)cc1O [Compound 694, N-(5-hydroxy-2,4-ditert-butyl-phenyl)-4-oxo-7-(trifluoromethoxy)-1H-quinoline-3-carboxamide]	< 10 µM	++ (between 25% to 100%)
O=C(Nc1cc(O)c(Cl)cc1F)c1c[nH]c2ccccc2c1=O [Compound 695, N-(4-chloro-2-fluoro-5-hydroxy-phenyl)-4-oxo-1H-quinoline-3-carboxamide]	< 10 µM	++ (between 25% to 100%)
O=C(Nc1ccc(OC(F)(F)F)c(N2CCCCC2)c1)c1c[nH]c2ccccc2c1=O [Compound 696, 4-oxo-N-[3-(1-piperidyl)-4-(trifluoromethoxy)phenyl]-1H-quinoline-3-carboxamide]	< 10 µM	++ (between 25% to 100%)
Cc1cccc2[nH]cc(C(=O)Nc3ccc(N4CCC[C@H]4C)cc3C(F)(F)F)c(=O)c12 [Compound 697, (R)-5-methyl-N-(4-(2-methylpyrrolidin-1-yl)-2-(trifluoromethyl)phenyl)-4-oxo-1,4-dihydroquinoline-3-carboxamide]	< 10 µM	++ (between 25% to 100%)
O=C(Nc1ccc(N2CCC[C@@H]2C(=O)O)cc1C(F)(F)F)c1c[nH]c2ccccc2c1=O [Compound 698, (R)-1-[4-[(4-oxo-1H-quinolin-3-yl)carbonylamino]-3-(trifluoromethyl)phenyl]pyrrolidine-2-carboxylic acid]	< 10 µM	++ (between 25% to 100%)
O=C(Nc1ccc(C(F)(F)F)c(O)c1)c1c[nH]c2cccc(O)c2c1=O [Compound 700, 5-hydroxy-N-[3-hydroxy-4-(trifluoromethyl)phenyl]-4-oxo-1H-quinoline-3-carboxamide]	< 10 µM	++ (between 25% to 100%)
Cc1cccc2[nH]cc(C(=O)Nc3ccc(OC(C)C)c(O)c3)c(=O)c12 [Compound 701, N-(3-hydroxy-4-isopropoxy-phenyl)-5-methyl-4-oxo-1H-quinoline-3-carboxamide]	< 10 µM	++ (between 25% to 100%)
CC(C)(C)c1cc(C(C)(C)C)c(NC(=O)c2c[nH]c3ccc(O)cc3c2=O)cc1O [Compound 702, 6-hydroxy-N-(5-hydroxy-2,4-ditert-butyl-phenyl)-4-oxo-1H-quinoline-3-carboxamide]	< 10 µM	++ (between 25% to 100%)
Cc1ccc2c(=O)c(C(=O)Nc3cc4[nH]ccc4cc3C(C)(C)C)c[nH]c2c1 [Compound 704, 7-methyl-4-oxo-N-(5-tert-butyl-1H-indol-6-yl)-1H-quinoline-3-carboxamide]	< 10 µM	++ (between 25% to 100%)
O=C(Nc1ccc(N2CC[C@@H](O)C2)cc1C(F)(F)F)c1c[nH]c2ccccc2c1=O [Compound 705, (R)-N-(4-(3-hydroxypyrrolidin-1-yl)-2-(trifluoromethyl)phenyl)-4-oxo-1,4-dihydroquinoline-3-carboxamide]	< 10 µM	++ (between 25% to 100%)
CC1(c2cc(F)c(NC(=O)c3c[nH]c4cccc(C(F)(F)F)c4c3=O)cc2O)CCCCC1 [Compound 706, N-[2-fluoro-5-hydroxy-4-(1-methylcyclohexyl)-phenyl]-4-oxo-5-(trifluoromethyl)-1H-quinoline-3-carboxamide]	< 10 µM	+++ (>100%)
CC(C)(C)c1ccc(NC(=O)c2c[nH]c3ccccc3c2=O)cc1N1CCCC1 [Compound 707, 4-oxo-N-(3-pyrrolidin-1-yl-4-tert-butyl-phenyl)-1H-quinoline-3-carboxamide]	< 10 µM	++ (between 25% to 100%)
O=C(Nc1csc(C(F)(F)F)c1-c1ccccc1)c1c[nH]c2ccccc2c1=O [Compound 708, 4-oxo-N-[4-phenyl-5-(trifluoromethyl)-3-thienyl]-1H-quinoline-3-carboxamide]	< 10 µM	++ (between 25% to 100%)
COc1cc2c(=O)c(C(=O)Nc3cc(O)c(C(C)(C)C)cc3C(C)(C)C)c[nH]c2cc1F [Compound 709, 7-fluoro-N-(5-hydroxy-2,4-ditert-butyl-phenyl)-6-methoxy-4-oxo-1H-quinoline-3-carboxamide]	< 10 µM	+++ (>100%)
CN1CCC(C)(C)c2ccc(NC(=O)c3c[nH]c4ccccc4c3=O)cc21 [Compound 710, 4-oxo-N-(1,4,4-trimethyl-2,3-dihydroquinolin-7-yl)-1H-quinoline-3-carboxamide]	< 10 µM	++ (between 25% to 100%)
O=C(Nc1cc(C(=O)O)c2cc[nH]c2c1)c1c[nH]c2ccccc2c1=O [Compound 711, 6-[(4-oxo-1H-quinolin-3-yl)carbonylamino]-1H-indole-4-carboxylic acid]	< 10 µM	++ (between 25% to 100%)
C[C@H]1CCCCN1c1ccc(NC(=O)c2c[nH]c3ccccc3c2=O)c(C(F)(F)F)c1 [Compound 713, (S)-N-(4-(2-methylpiperidin-1-yl)-2-(trifluoromethyl)phenyl)-4-oxo-1,4-dihydroquinoline-3-carboxamide]	< 10 µM	+++ (>100%)
C[C@H]1CCCN1c1ccc(NC(=O)c2c[nH]c3ccc(F)cc3c2=O)c(C(F)(F)F)c1 [Compound 714, (S)-6-fluoro-N-(4-(2-methylpyrrolidin-1-yl)-2-(trifluoromethyl)phenyl)-4-oxo-1,4-dihydroquinoline-3-carboxamide]	< 10 µM	++ (between 25% to 100%)
COC(=O)[C@@H]1CCCCN1c1ccc(NC(=O)c2c[nH]c3ccccc3c2=O)c(C(F)(F)F)c1 [Compound 715, (S)-methyl 1-(4-(4-oxo-1,4-dihydroquinoline-3-carboxamido)-3-(trifluoromethyl)phenyl)piperidine-2-carboxylate]	< 10 µM	++ (between 25% to 100%)
O=C(Nc1ccc(C(F)(F)F)c(O)c1)c1c[nH]c2c(Cl)cccc2c1=O [Compound 716, 8-chloro-N-[3-hydroxy-4-(trifluoromethyl)phenyl]-4-oxo-1H-quinoline-3-carboxamide]	< 10 µM	++ (between 25% to 100%)
COc1cc(NC(=O)c2c[nH]c3ccccc3c2=O)cc2ccccc12 [Compound 717, N-(4-methoxy-2-naphthyl)-4-oxo-1H-quinoline-3-carboxamide]	< 10 µM	++ (between 25% to 100%)
CC(C)(C)c1cc(C(C)(C)C)c(NC(=O)c2c[nH]c3c(F)ccc(F)c3c2=O)cc1O [Compound 718, 5,8-difluoro-N-(5-hydroxy-2,4-ditert-butyl-phenyl)-4-oxo-1H-quinoline-3-carboxamide]	< 10 µM	++ (between 25% to 100%)
